Data reported in US8163793B2, “Proline derivatives” (Hoffman-La Roche Inc., priority 2009, dated 2012).
pIC50: −log10 of the molar value.

Tests used:
Cat L = Cat L (UniProt P07711); experiment: Cathepsin enzyme inhibition assay (fluorogenic peptide substrate Z-Val-Val-Arg-AMC), Cathepsin L; format: biochemical, human and mouse; conditions: enzyme 1 nM, substrate 20 μM, pH 6.5; read-out: CatL IC50
How it was run: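 Cathepsin L at 1 nM was mixed with compound, then started with 20 μM Z-Val-Val-Arg-AMC in pH 6.5 potassium phosphate with EDTA, Triton X-100 and 5 mM DTT. AMC fluorescence (ex 360/em 465 nm) was followed over 20 min. IC50 is given in μM.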

Cathepsin S = Cathepsin S (UniProt P25774); experiment: Cathepsin enzyme inhibition assay (fluorogenic peptide substrate Z-Val-Val-Arg-AMC), Cathepsin S; format: biochemical, human and mouse; conditions: enzyme 1 nM, substrate 20 μM, pH 6.5; read-out: CatS IC50
How it was run: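 Human or mouse cathepsin S (1 nM) was run in 100 mM potassium phosphate pH 6.5 with 5 mM EDTA, 0.001% Triton X-100 and 5 mM DTT. The rise in AMC fluorescence from cleavage was measured, and IC50 values were calculated by standard methods and expressed in μM.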

Row | pIC50 (Cat L) | pIC50 (Cathepsin S) | Structure (SMILES)
1 | ≤ 4.60 | 9.22 | N#CCNC(=O)[C@@H]1C[C@@H](S(=O)(=O)c2ccccc2C(F)(F)F)CN1C(=O)c1ccc(F)cc1 [Example 65, (2S,4R)-1-(4-Fluoro-benzoyl)-4-(2-trifluoromethyl-benzenesulfonyl)-pyrrolidine-2-carboxylic acid cyanomethyl-amide]
2 | ≤ 4.60 | 9.52 | N#CC1(NC(=O)[C@@H]2C[C@@H](S(=O)(=O)c3ccccc3C(F)(F)F)CN2C(=O)C2CCC(C(F)(F)F)CC2)CC1 (stereo partly drawn) [Example 105, (2S,4R)-4-(2-Trifluoromethyl-benzenesulfonyl)-1-(4-trifluoromethyl-cyclohexanecarbonyl)-pyrrolidine-2-carboxylic acid (1-cyano-cyclopropyl)-amide]
3 | 4.61 | 8.23 | CCN1CCN(c2ccc(S(=O)(=O)[C@H]3CN[C@H](C(=O)NC4(C#N)CC4)C3)c(Cl)c2)CC1 [Example 140, (2S,4R)-4-[2-Chloro-4-(4-ethyl-piperazin-1-yl)-benzenesulfonyl]-pyrrolidine-2-carboxylic acid (1-cyano-cyclopropyl)-amide formiate]
4 | 4.32 | 9.71 | Cc1cc(-c2ccc(S(=O)(=O)[C@@H]3C[C@@H](C(=O)NC4(C#N)CC4)N(C(=O)C4(C)CC4)C3)c(C(F)(F)F)c2)ccn1 [Example 257, (2S,4R)-1-(1-M ethyl-cyclopropanecarbonyl)-4-[4-(2-methyl-pyridin-4-yl)-2-trifluoromethyl-benzenesulfonyl]-pyrrolidine-2-carboxylic acid (1-cyano-cyclopropyl)-amide]
5 | ≤ 4.60 | 6.07 | C=CCOc1ccccc1S(=O)(=O)[C@H]1CN[C@H](C(=O)NC2(C#N)CC2)C1 [Example 453, (2S,4R)-4-(2-Allyloxy-benzenesulfonyl)-pyrrolidine-2-carboxylic acid (1-cyano-cyclopropyl)-amide]
6 | 6.33 | 10.15 | N#CC1(NC(=O)[C@@H]2C[C@@H](S(=O)(=O)c3ccccc3Cl)CN2C(=O)C2(c3ccc(Cl)c(Cl)c3)CC2)CC1 [Example 284, (2S,4R)-4-(2-Chloro-benzenesulfonyl)-1-[1-(3,4-dichloro-phenyl)-cyclopropanecarbonyl]-pyrrolidine-2-carboxylic acid (1-cyano-cyclopropyl)-amide]
7 | ≤ 4.60 | 6.81 | N#CC1(NC(=O)[C@H]2C[C@H](S(=O)(=O)c3ccccc3C(F)(F)F)CN2c2ccc(F)c(Cl)c2)CC1 [Example 395, (2R,4S)-1-(3-Chloro-4-fluoro-phenyl)-4-(2-trifluoromethyl-benzenesulfonyl)-pyrrolidine-2-carboxylic acid (1-cyano-cyclopropyl)-amide]
8 | 4.21 | 7.52 | CCN1C[C@H](S(=O)(=O)c2ccccc2Cl)C[C@H]1C(=O)NC1(C#N)CC1 [Example 83, (2S,4R)-4-(2-Chloro-benzenesulfonyl)-1-ethyl-pyrrolidine-2-carboxylic acid (1-cyano-cyclopropyl)-amide]
9 | ≤ 4.60 | 7.90 | CC(C)(C)OC(=O)N1C[C@H](S(=O)(=O)c2ccc(F)cc2Cl)C[C@H]1C(=O)NC1(C#N)CC1 [Example 124, (2S,4R)-4-(2-Chloro-4-fluoro-benzenesulfonyl)-2-(1-cyano-cyclopropylcarbamoyl)-pyrrolidine-1-carboxylic acid tert.-butyl ester]
10 | ≤ 4.60 | 8.01 | N#CC1(NC(=O)C2C[C@@H](S(=O)(=O)c3ccc(OCC(F)(F)F)cc3Cl)CN2C=O)CC1 (stereo partly drawn) [Example 182, (R)-4-[2-Chloro-4-(2,2,2-trifluoro-ethoxy)-benzenesulfonyl]-1-formyl-pyrrolidine-2-carboxylic Acid (1-cyano-cyclopropyl)-amide]
11 | ≤ 4.60 | 7.17 | Cc1cc(N2C[C@H](S(=O)(=O)c3ccccc3C(F)(F)F)C[C@@H]2C(=O)NC2(C#N)CC2)n(Cc2ccccc2)n1 [Example 321, (2R,4R)-1-(2-Benzyl-5-methyl-2H-pyrazol-3-yl)-4-(2-trifluoromethyl-benzenesulfonyl)-pyrrolidine-2-carboxylic acid (1-cyano-cyclopropyl)-amide]
12 | 5.30 | 7.94 | N#CC1(NC(=O)[C@H]2CC(S(=O)(=O)c3ccccc3Cl)CN2C(=O)C(NCC(F)(F)F)c2ccc(Cl)cc2)CC1 (stereo partly drawn) [Example 421, (R)-4-(2-Chloro-benzenesulfonyl)-1-[2-(4-chloro-phenyl)-2-(2,2,2-trifluoro-ethylamino)-acetyl]-pyrrolidine-2-carboxylic acid (1-cyano-cyclopropyl)-amide]
13 | 4.68 | 8.92 | COCC(=O)N1C[C@H](S(=O)(=O)c2ccccc2Cl)C[C@H]1C(=O)NCC#N [Example 62, (2S,4R)-4-(2-Chloro-benzenesulfonyl)-1-(2-methoxy-acetyl)-pyrrolidine-2-carboxylic acid cyanomethyl-amide]
14 | 4.55 | 8.77 | CC(Oc1ccc(S(=O)(=O)[C@@H]2C[C@@H](C(=O)NC3(C#N)CC3)N(C=O)C2)c(Cl)c1)C(F)(F)F (stereo partly drawn) [Example 150, (2S,4R)-4-[2-Chloro-4-(2,2,2-trifluoro-1-methyl-ethoxy)-benzenesulfonyl]-1-formyl-pyrrolidine-2-carboxylic acid (1-cyano-cyclopropyl)-amide]
15 | 6.92 | 9.08 | N#CC1(NC(=O)[C@@H]2C[C@@H](S(=O)(=O)c3ccc(OCC(F)(F)F)cc3Cl)CN2C(=O)C2(c3cccc4ccccc34)OCCO2)CC1 [Example 390, (2S,4R)-4-[2-Chloro-4-(2,2,2-trifluoro-ethoxy)-benzenesulfonyl]-1-(2-naphthalen-1-yl-[1,3]dioxolane-2-carbonyl)-pyrrolidine-2-carboxylic acid (1-cyano-cyclopropyl)-amide]
16 | ≤ 4.60 | 7.57 | C[C@H](Oc1ccc(S(=O)(=O)[C@@H]2C[C@H](C(=O)NC3(C#N)CC3)N(C(=O)C3CC3)C2)c(Cl)c1)C(F)(F)F [Example 198, (2R,4R)-4-[2-Chloro-4-((S)-2,2,2-trifluoro-1-methyl-ethoxy)-benzenesulfonyl]-1-cyclopropanecarbonyl-pyrrolidine-2-carboxylic acid (1-cyano-cyclopropyl)-amide]
17 | ≤ 4.60 | 6.17 | CC(C)(C#N)NC(=O)[C@@H]1C[C@@H](S(=O)(=O)c2ccccc2Cl)CN1C(=O)OC(C)(C)C [Example 33, (2S,4R)-4-(2-Chloro-benzenesulfonyl)-2-[(cyano-dimethyl-methyl)-carbamoyl]-pyrrolidine-1-carboxylic acid tert-butyl ester]
18 | 7.65 | 9.01 | N#CC1(NC(=O)[C@@H]2C[C@@H](S(=O)(=O)c3ccccc3Cl)CN2C(=O)C2(c3cc(F)c(Cl)cc3Cl)CC2)CC1 [Example 461, (2S,4R)-4-(2-Chloro-benzenesulfonyl)-1-[1-(2,4-dichloro-5-fluoro-phenyl)-cyclopropanecarbonyl]-pyrrolidine-2-carboxylic acid (1-cyano-cyclopropyl)-amide]
19 | 4.78 | 9.66 | Cc1cc(N2C[C@H](S(=O)(=O)c3ccc(OCC(F)(F)F)cc3C(F)(F)F)C[C@H]2C(=O)NC2(C#N)CC2)n(C2CCC2)n1 [Example 391, (2S,4R)-1-(2-Cyclobutyl-5-methyl-2H-pyrazol-3-yl)-4-[4-(2,2,2-trifluoro-ethoxy)-2-trifluoromethyl-benzenesulfonyl]-pyrrolidine-2-carboxylic acid (1-cyano-cyclopropyl)-amide]
